Peptide text beside a SMILES is read from it.
Columns and labels:
[1] = target: γ-secretase against βCTF (C99-FLAG) (Homo sapiens, UniProt P05067); assay: γ-Secretase activity inhibition experiment in vitro, C99-FLAG substrate; type: biochemical; conditions: polypeptide 50 μM, 4 hours, 37° C., Western blotting
Procedure: A polypeptide having βCTF (C99-FLAG: SEQ ID NO: 16) and mouse-derived Notch protein having a FLAG peptide at the C-terminal side (modification of NCBI Accession No. Q01705.2; SEQ ID NO: 17; hereunder referred to as “Notch”) shown in FIG. 2(A) were each made into a solution having a final concentration of 50 nM.
To these solutions, 9-7 polypeptide, 6-5 polypeptide, #1 polypeptide, #2 polypeptide, #3 polypeptide, and #4 polypeptide were added in such a manner that the final concentrations were 50 μM, followed by reacting with 50 μL of CHAPSO-solubilized membrane fraction (γ-secretase-containing fraction) for 4 hours. The reaction temperature was 37° C. As a negative control experiment, DMSO was used in place of the six types of polypeptides described above.
Each sample after completion of the reaction was measured in the following manner. As shown in FIG. 2(A), a sample using C99-FLAG was subjected to Western blotting using a monoclonal antibody (82E-1) that specifically recognizes the N terminal of C99-FLAG, and the amount of Aβ40 protein produced by the cleavarage by γ-secretase was measured. In contrast, the reaction sample using Notch-FLAG was subjected to Western blotting using an anti-FLAG monoclonal antibody, and the amount of NICD produced to the separete by γ-secretase was also measured. FIG. 2(B) and FIG. 2(C) show the results.
An experiment was conducted in the same manner as in Experimental Example 1 described above, except that only #1 polypeptide was used and the amount of #1 polypeptide was selected so that the final concentrations were 0.5, 1, 5, 10, 20, and 50 μM.
An experiment was conducted in the same manner as in Experimental Example 1 described above, except that S4 polypeptide was used as the polypeptide, and each addition amount was set in such a manner that the final concentrations were 1, 5, 10, 20, and 50 μM. In this Experimental Example, #4 polypeptide was added in such a manner that the final result was 50 μM.

[2] = target: β-secretase against APP (APP-EQ-FLAG) (Homo sapiens, UniProt P05067); assay: β-Secretase activity inhibition experiment in vitro, APP-EQ-FLAG substrate; type: biochemical
Chain of β-secretase against APP (APP-EQ-FLAG) (P05067 with tags, fused parts or gaps): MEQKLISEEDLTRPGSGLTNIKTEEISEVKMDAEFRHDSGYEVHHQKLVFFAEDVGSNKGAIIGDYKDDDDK
Procedure: A solution containing the polypeptide having APP (APP-EQ-FLAG: SEQ ID NO: 18) as shown in FIG. 5(A) was prepared in such a manner that its final concentration was 50 nM.
To this solution, 9-7 polypeptide, 6-5 polypeptide, #1 polypeptide, #2 polypeptide, #3 polypeptide, #4 polypeptide, #5 polypeptide, #6 polypeptide, #7 polypeptide, #8 polypeptide, #9 polypeptide, and #10 polypeptide were added in such a manner that each solution had the final concentration of 50 μM, followed by reacting with 50 μL β-secretase (0.02 U/μL) for 4 hours. The reaction temperature was 37° C. As a negative control experiment, DMSO was used in place of the 12 types of polypeptides mentioned above.
After completion of the reaction, each sample was subjected to Western blotting using a monoclonal antibody (82E-1) that specifically recognizes the N terminal of APP-EQ-FLAG as shown in FIG. 5(A). Thereafter, the amount of Aβ33-FLAG protein separated by β-secretase was measured.
An experiment was conducted in the same manner as Experimental Example 4 described above except that S4 and #4 polypeptides were used as the polypeptide and the amounts of these polypeptides added were adjusted so that the final concentrations were 1, 5, 10, 20, 50, and 100 μM.

[3] = test system: Aβ protein in hippocampus; assay: Aβ protein production inhibition after direct administration in mouse hippocampus; type: in vivo; conditions: C57BL/6 mouse, 0.2 ng/g directly in right-side hippocampus, three hours after administration, relative to rev#4
Procedure: A #4 polypeptide solution using 50% DMSO as a solvent was administered to a C57BL/6 mouse in an amount of 0.2 ng/g. The solution was directly administered in the right-side hippocampus of the mouse. Three hours after administration, the right-side hippocampus was extracted, and the amount of Aβ protein extracted by TBS and 6M guanidine hydrochloride was measured by using the sandwich ELISA method (product name: human/rat β amyloid (40) ELISA Kit Wako for immunochemistry, product No. 294-62501; product name: human/rat β amyloid (42) ELISA Kit Wako for immunochemistry, product No. 290-62501: both manufactured by Wako Pure Chemical Industries, Ltd.). As a negative control experiment, a polypeptide (rev#4: SEQ ID NO: 19) having the amino acid sequence in inverse order of #4 polypeptide was administered to the left-side hippocampus of the same mouse.
FIG. 9 is a graph showing the Aβ protein extracted from the mouse was quantified. The vertical axis indicates the relative value taking the result of negative control experiment in which rev#4 polypeptide was administered as 100%.

[4] = target: T1, APP in CHO-K1 cells (Cricetulus griseus, UniProt A0A8C2MGG8); assay: Analysis of subcellular distribution in CHO-K1 cells; type: cell-based; conditions: Biotin-modified #4 polypeptide, avidin-modified Alexa488; CHO-K1 cells expressing endogenous APP at a low level
T1 construct: CHO-K1 cells expressing endogenous APP protein at a low level; endogenous in cells; host or cells: CHO-K1
T1 sequence (A0A8C2MGG8 18-770): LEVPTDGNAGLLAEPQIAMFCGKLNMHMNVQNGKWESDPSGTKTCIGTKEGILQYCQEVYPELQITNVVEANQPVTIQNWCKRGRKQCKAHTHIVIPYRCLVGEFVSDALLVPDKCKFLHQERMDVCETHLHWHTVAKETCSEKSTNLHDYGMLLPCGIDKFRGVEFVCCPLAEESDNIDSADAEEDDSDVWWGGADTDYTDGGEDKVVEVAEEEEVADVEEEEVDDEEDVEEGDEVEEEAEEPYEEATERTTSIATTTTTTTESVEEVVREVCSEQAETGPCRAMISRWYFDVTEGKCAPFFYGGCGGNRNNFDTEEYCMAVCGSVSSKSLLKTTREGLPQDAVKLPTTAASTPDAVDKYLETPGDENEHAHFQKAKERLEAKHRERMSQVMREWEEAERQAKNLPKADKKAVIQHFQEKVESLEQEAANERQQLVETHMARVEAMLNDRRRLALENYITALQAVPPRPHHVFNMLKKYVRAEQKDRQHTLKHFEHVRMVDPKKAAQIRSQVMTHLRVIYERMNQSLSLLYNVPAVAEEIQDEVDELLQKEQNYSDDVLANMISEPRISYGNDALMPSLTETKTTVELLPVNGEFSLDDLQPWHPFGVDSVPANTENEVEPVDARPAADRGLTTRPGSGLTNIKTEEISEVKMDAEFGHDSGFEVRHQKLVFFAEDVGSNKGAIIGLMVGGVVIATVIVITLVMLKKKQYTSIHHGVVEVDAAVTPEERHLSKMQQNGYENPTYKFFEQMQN
Procedure: Biotin-modified #4 polypeptide was prepared using a known method. This polypeptide was allowed to react with CHO-K1 cells and the 7WD10 cells mentioned above, and the resulting cells were immobilized, and then treated with Triton X-100. Thereafter, avidin-modified Alexa488 was reacted with the above. As the negative control experiment, an experiment was conducted reacting avidin-modified Alexa 488 in place of Biotin-modified #4 polypeptide.

[5] = test system: Neuro 2A cells (N2A); assay: Mouse Aβ production inhibition experiment, Neuro 2A cells; type: cell-based; conditions: polypeptide 20 μM, Neuro2A cells expressing mouse-type APP, anti-mouse Aβ antibody Western blotting
Procedure: #1, #2, and #4 polypeptides were added to the culture solutions of CHO-K1 cells and Neuro 2A cells (N2A) in such a manner that the final concentration was 20 μM. As a control, L685458 (i.e., a γ-secretase inhibitor) and DMSO were added thereto in such a manner that the final concentration was 20 μM.
Thereafter, Aβ contained in the cell culture medium was identified by using a Western-blotting method with an antibody (anti-mouse Aβ antibody) that recognizes Aβ. […] In the figure, L indicates L685458, which is a γ-secretase inhibitor (final concentration of 1 μM).

[6] = test system: Aβ in the cerebrum; assay: Intraperitoneal administration to mouse, Aβ in cerebrum; type: in vivo; conditions: 150 mg/kg intraperitoneally, three consecutive days, wild-type mice
Procedure: 150 mg/kg #4 polypeptide dissolved in DMSO was intraperitoneally administered to ten wild-type mice (C57 BL/6 N Cr Slc, seven weeks old). The administration was conducted for three consecutive days. Four days after, the mice were euthanized to extract the cerebrum.
The extracted cerebrums were dissolved by using a known method, subjected to immunoprecipitation with anti-4G8 antibody, and then subjected to Western blotting using the anti-mouse Aβ antibody. An experiment was conducted in the same manner except that only DMSO was administered as the negative control experiment group (ten mice).
In the Western blotting, an experiment was conducted using 5, 10, 50, 100, and 200 pg rodent-originated Aβ as the standard reference material. FIG. 10(A−1) and […] show the results.

Chain of γ-secretase against βCTF (C99-FLAG) (P05067 with tags, fused parts or gaps): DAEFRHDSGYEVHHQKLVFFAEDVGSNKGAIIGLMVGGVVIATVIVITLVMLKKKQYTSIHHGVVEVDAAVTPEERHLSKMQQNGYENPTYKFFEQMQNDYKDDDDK

CC[C@H](C)[C@H](NC(=O)[C@H](CC(=O)O)NC(=O)[C@@H](NC(=O)[C@@H](NC(=O)[C@H](CS)NC(=O)[C@H](Cc1ccc(O)cc1)NC(=O)[C@H](CS)NC(=O)[C@H](CC(=O)O)NC(=O)[C@H](CS)NC(=O)[C@@H](NC(=O)[C@@H](NC(=O)[C@H](CC(C)C)NC(=O)[C@H](Cc1c[nH]cn1)NC(=O)[C@H](CCSC)NC(C)=O)C(C)C)[C@@H](C)CC)[C@@H](C)O)[C@@H](C)O)C(=O)N[C@@H](CS)C(=O)N[C@@H](Cc1ccc(O)cc1)C(=O)N[C@@H](CS)C(=O)N[C@@H](Cc1ccc(O)cc1)C(=O)N[C@@H](CO)C(=O)N[C@@H](CS)C(=O)N[C@H](C(=O)N1CCC[C@H]1C(=O)N[C@@H](CC(N)=O)C(N)=O)[C@@H](C)O [#4] (Ac-MHLVICDCYCTTDICYCYSCTPN-NH2)
cleavage activity of γ-secretase against βCTF (Aβ40 from C99-FLAG) [1]: inhibited more cleavage activity of γ-secretase against βCTF | cleavage activity of β-secretase against APP (Aβ33-FLAG) ([2]; polypeptide 50 μM, 4 hours, 37° C., Western blotting): inhibit the cleavage activity of β-secretase against APP more intensely | cleavage activity of β-secretase against APP ([2]; polypeptide 1, 5, 10, 20, 50, and 100 μM): inhibited the cleavage activity of β-secretase against APP in a concentration-dependent manner | Aβ protein production in hippocampus (sandwich ELISA) [3]: remarkably inhibited Aβ protein production | binding to APP in cells [4]: binded to APP in the cells | production of Aβ in the culture medium [5]: the production of Aβ in the culture medium was reduced | Aβ production inhibition (bands quantified with densitometry) [6]: excellent Aβ production inhibition effect | bands indicating Aβ in the cerebrum (Western blotting) ([6]; compared to DMSO): the number of bands indicating Aβ was reduced

From US9045525B2, “Amyloid β-protein-specific production-inhibiting polypeptide” (THE DOSHISHA, priority 2012, dated 2015)
